Measurements: patent US7485634B2, “Azepinoindole and pyridoindole derivatives as pharmaceutical agents” (Exelixis, Inc., priority 2002, dated 2009)
Each block holds one molecule with its values, some of them ahead of it.

What was measured:
[1] = molecular target: T1, full length human farnesoid X receptor (Homo sapiens, UniProt Q96RI1); test: farnesoid X receptor/ECREx7 co-transfection assay (luciferase reporter, CV-1 cells); type: cell-based; conditions: read-out: agonist activity EC50
T1 construct: CMX-farnesoid X receptor (full length human farnesoid X receptor); expressed in transfected cells; host or cells: CV-1 African Green Monkey Kidney cells
T1 sequence (Q96RI1 1-472 isoform Q96RI1-2): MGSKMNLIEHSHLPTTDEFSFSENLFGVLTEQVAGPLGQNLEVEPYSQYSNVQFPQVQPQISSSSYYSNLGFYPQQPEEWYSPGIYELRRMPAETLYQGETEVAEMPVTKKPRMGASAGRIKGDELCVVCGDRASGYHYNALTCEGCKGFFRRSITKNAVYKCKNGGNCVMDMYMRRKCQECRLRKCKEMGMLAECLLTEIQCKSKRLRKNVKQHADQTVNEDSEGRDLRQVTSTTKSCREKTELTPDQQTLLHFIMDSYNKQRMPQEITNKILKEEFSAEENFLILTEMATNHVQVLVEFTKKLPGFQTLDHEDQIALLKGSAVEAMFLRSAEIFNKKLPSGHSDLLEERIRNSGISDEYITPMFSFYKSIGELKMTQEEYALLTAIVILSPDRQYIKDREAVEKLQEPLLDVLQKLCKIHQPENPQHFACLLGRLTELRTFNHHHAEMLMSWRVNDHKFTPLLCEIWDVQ
T1 sequence (P19793 1-462 partner): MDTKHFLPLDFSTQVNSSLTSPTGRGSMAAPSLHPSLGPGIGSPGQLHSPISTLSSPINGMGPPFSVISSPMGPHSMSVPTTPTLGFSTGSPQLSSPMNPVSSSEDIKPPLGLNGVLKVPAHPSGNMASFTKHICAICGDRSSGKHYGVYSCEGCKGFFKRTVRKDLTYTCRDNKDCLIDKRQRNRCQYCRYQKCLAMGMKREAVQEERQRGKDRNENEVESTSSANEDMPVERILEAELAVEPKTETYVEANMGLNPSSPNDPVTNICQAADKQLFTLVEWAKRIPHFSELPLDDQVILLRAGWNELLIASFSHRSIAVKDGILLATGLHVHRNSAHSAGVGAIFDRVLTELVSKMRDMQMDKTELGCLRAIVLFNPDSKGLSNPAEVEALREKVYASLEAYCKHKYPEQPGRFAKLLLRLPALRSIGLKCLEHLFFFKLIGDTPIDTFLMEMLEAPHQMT
Description: The basic co-transfection protocol for measuring the farnesoid X receptor activity is as follows. CV-1 African Green Monkey Kidney cells were plated 24 hours before transfection to achieve approximately 70-80 percent confluency. Cells were transfected with the following expression vectors, CMX-farnesoid X receptor (full length human farnesoid X receptor), CMX-RXRα (full length human RXR), Luc12 (ECREx7-Tk-Luciferase) luciferase reporter gene construct. (See WO 00/76523, Venkateswaran et al., (2000) J. Biol. Chem. 275 14700-14707). A CMX-β-Galactosidase expression vector was used as a transfection control. The transfection reagent used was DOTAP (Boehringer Mannheim). Cells were incubated with the DOTAP/DNA mixture for 5 hours after which the cells were harvested and plated onto either 96 well or 384 well plates containing the appropriate concentration of test compound. The assay was allowed to continue for an additional 18-20 hours, after which the cells were lysed, with lysis buffer (1% triton X 100, 10% glycerol, 5 mM Dithiothreitol, 1 mM EGTA, 25 mM Tricine, pH 7.8) and the luciferase activity measured in the presence of Luciferase assay buffer (0.73 mM ATP, 22.3 mM Tricine, 0.11 mM EGTA, 0.55 mM Luciferin, 0.15 mM Coenzyme A, 0.5 mM HEPES, 10 mM Magnesium sulphate) on a standard luminomter plate reader (PE Biosystems, NorthStar Reader), using recommended operating instructions and conditions.
Both the farnesoid X receptor/ECREx7 co-transfection assay (Example 76) and the TR-FRET assay (Example 75) can be used to establish the EC50/IC50 values for potency and percent activity or inhibition for efficacy. Efficacy defines the activity of a compound relative to a high control (chenodeoxycholic acid, CDCA) or a low control (DMSO/vehicle). The dose response curves are generated from an 8 point curve with concentrations differing by ½ LOG units. Each point represents the average of 4 wells of data from a 384 well plate. The curve for the data is generated by using the equation: Y=Bottom+(Top−Bottom)/(1+10^((LogEC50−X)*HillSlope))
The EC50/IC50 is therefore defined as the concentration at which an agonist or antagonist elicits a response that is half way between the Top (maximum) and Bottom (baseline) values. The EC50/IC50 values represented are the averages of at least 3 independent experiments. The determination of the relative efficacy or % control for an agonist is by comparison to the maximum response achieved by chenodeoxycholic acid that is measured individually in each dose response experiment.
For the antagonist assay, CDCA is added to each well of a 384 well plate to elicit a response. The % inhibition for each antagonist is therefore a measurement of the inhibition of the activity of CDCA.

normal mice = test: In vivo plasma lipid profile, normal mice, one week of daily oral dosing; parameters: species or system mouse
Description: To compare the effects of compounds on plasma lipid profiles, including but not limited to cholesterol and triglycerides, animals were dosed with compound for one week and plasma lipid levels monitored throughout the study. Male C57BL/6 mice (n=8) were dosed daily by oral gavage with vehicle or compound. Plasma samples were taken on day −1 (in order to group animals), day 1, 3, and 7. Samples were collected three hours after the daily dose. On day 7 of the study, following plasma collection, animals were euthanized and tissues, such as liver and intestinal mucosa were collected and snap frozen for further analysis. Plasma was analyzed for lipid parameters, such as total cholesterol, HDL cholesterol and triglyceride levels. RNA was extracted from frozen tissues for later analysis by quantitative real time PCR for regulation of key target genes. To identify specificity of target gene regulation by the farnesoid X receptor, knockout mice and C57BL/6 wild-type controls maybe used in this same protocol.

db/db mouse = test: In vivo model of diabetes and dyslipidemia: db/db mouse; conditions: once daily 10 mg/kg for one week
farnesoid X receptor = molecular target: T2, farnesoid X receptor (Homo sapiens, UniProt Q96RI1); test: one or more of the in vitro assays described herein (TR-FRET assay, Example 75; co-transfection assay, Example 76); conditions: relative to maximum response of chenodeoxycholic acid (CDCA); read-out: efficacy;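 also: TR-FRET assay or luciferase reporter in CV-1 monkey kidney cells co-transfected with human FXR and RXRα, dose-response over 8 half-log concentrations, CDCA added in antagonist mode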
T2 construct: fused on or other part: GST fused in frame to the N-terminus of the LBD (TR-FRET assay only); Nothing is fused on in the co-transfection assay
T2 sequence (Q96RI1 244-471 isoform Q96RI1-2 limits assumed): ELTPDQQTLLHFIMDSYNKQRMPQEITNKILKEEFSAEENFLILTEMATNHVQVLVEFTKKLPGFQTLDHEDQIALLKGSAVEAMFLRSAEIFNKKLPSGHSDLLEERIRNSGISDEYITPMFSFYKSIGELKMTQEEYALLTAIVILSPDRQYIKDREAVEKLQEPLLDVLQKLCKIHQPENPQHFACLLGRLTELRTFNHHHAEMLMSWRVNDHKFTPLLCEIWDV

[2] = tested on: low density lipoprotein receptor deficient mice (LDLR^−/−); test: In vivo model of hyperlipidemia and atherosclerosis: LDLR−/− mice consuming a western diet; parameters: species or system mouse
[3] = 10 mg/kg daily dosing for one week
[4] = one week of daily dosing at 10 mg/kg

EC50 [1]: < 1000 nM
SMILES: CCOC(=O)C1=CN(C(=O)c2cccc(F)c2)CCc2c1[nH]c1ccccc21 [3-(3-fluorobenzoyl)-1,2,3,6-tetrahydroazepino[4,5-b]indole-5-carboxylic acid ethyl ester]

EC50 [1]: < 1000 nM
SMILES: O=C(NC1CCC1)C1=CN(C(=O)c2ccc(F)cc2)CCc2c1[nH]c1ccccc21 [3-(4-fluorobenzoyl)-1,2,3,6-tetrahydroazepino[4,5-b]indole-5-carboxylic acid cyclobutylamide]

Emax (farnesoid X receptor): > 100%
SMILES: CCOC(=O)C1=CN(C(=O)c2ccc(F)c(F)c2)CC(C)(C)c2c1[nH]c1ccccc21 [ethyl 3-(3,4-difluorobenzoyl)-1,1-dimethyl-1,2,3,6-tetrahydroazepino[4,5-b]indole-5-carboxylate]
plasma HDL-cholesterol levels (normal mice; [3]): without affecting
plasma non-HDL cholesterol (normal mice; [3]): significant lowering
plasma total cholesterol (normal mice; [3]): decreased
plasma triglyceride levels (normal mice; once daily dosing at 0.1-10 mg/kg for one week): significantly reduced
plasma free fatty acid levels (db/db mouse): declines
reduction in non-HDL cholesterol (db/db mouse): approximately 50%
reduction in plasma triglycerides (db/db mouse): approximately 50%
decrease of plasma total cholesterol levels [2, 4]: ~50%
non-HDL cholesterol [2, 4]: decrease
reduction of plasma triglycerides [2, 4]: greater than 50%
plasma free fatty acid concentration ([2]; treatment with compound): attenuated
plasma glucose concentration ([2]; treatment with compound): attenuated

EC50 [1]: < 1000 nM
SMILES: CCCOC(=O)C1=CN(C(=O)c2ccc(F)cc2)C(C)Cc2c1[nH]c1ccccc21 (stereo not shown) [n-propyl 3(4-fluorobenzoyl)-2-methyl-1,2,3,6-tetrahydroazepino[4,5-b]indole-5-carboxylate]
